According to article PMC2939729 (Cancer cell, 2010):

Columns and labels:
ERK1/2 = test: EGF-induced ERK1/2 activation in HeLa cells; assay type: cell-based, human; conditions: 1 μM compound for one hour, EGF 17 min
BMK1 = BMK1 (Homo sapiens, UniProt Q13164); test: EGF-induced BMK1 activation in HeLa cells; assay type: cell-based; conditions: 1 μM compound for one hour, EGF 17 min
Chain of BMK1 (Q13164 whole entry): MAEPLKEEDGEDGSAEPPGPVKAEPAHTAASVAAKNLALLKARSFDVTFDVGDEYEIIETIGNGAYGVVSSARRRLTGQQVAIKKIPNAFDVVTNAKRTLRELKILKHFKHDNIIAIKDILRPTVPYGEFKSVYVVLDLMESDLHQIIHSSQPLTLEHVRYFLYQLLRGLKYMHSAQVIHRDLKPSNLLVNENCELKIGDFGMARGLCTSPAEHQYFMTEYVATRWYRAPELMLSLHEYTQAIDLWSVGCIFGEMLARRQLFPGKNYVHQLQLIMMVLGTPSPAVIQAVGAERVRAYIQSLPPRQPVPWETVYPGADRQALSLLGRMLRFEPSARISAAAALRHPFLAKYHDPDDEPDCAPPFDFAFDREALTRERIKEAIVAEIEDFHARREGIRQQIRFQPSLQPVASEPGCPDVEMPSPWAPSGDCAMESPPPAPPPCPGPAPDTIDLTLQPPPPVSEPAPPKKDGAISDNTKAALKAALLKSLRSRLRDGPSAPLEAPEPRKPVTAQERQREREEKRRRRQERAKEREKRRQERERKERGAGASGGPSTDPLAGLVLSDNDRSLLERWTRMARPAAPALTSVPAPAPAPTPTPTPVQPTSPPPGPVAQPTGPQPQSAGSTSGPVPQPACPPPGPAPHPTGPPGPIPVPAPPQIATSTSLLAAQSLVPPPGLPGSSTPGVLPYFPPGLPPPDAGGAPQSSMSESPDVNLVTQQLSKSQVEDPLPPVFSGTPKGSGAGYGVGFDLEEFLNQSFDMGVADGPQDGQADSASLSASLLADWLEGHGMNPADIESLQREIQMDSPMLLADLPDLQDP

Growth factor-induced activation of cellular BMK1 (BMK1): not BMK1 activation
SMILES: O=C(NOCC1CC1)c1ccc(F)c(F)c1Nc1ccc(I)cc1Cl [PD184352, reference compound]
Growth factor-induced activation of cellular ERK1/2 (ERK1/2): only blocked ERK1/2
